ChEMBL document CHEMBL1138213, “Novel multipotent tacrine-dihydropyridine hybrids with improved acetylcholinesterase inhibitory and neuroprotective activities as potential drugs for the treatment of Alzheimer's disease” (J Med Chem, 2006)

What was measured:
[1] = target: Acetylcholinesterase (Homo sapiens, UniProt P22303)
Description: Inhibition of human erythrocyte AChE

[2] = target: Acetylcholinesterase (Electrophorus electricus, UniProt O42275)
Description: Inhibition of Electrophorus electricus AChE

[3] = cells; details: Homo sapiens, SH-SY5Y
Description: Antagonist activity at calcium channel expressed in SH-SY5Y cells assessed as blockade of potassium-induced calcium influx increase at 0.3 uM relative to control

[4] = system: SH-SY5Y; assay: cells; details: Homo sapiens, read-out: Activity
Description: Viability of SH-SY5Y cells measured as neuroprotection activity in presence of H2O2 at 0.3 uM relative to control

[5] = target: Cholinesterase (Homo sapiens, UniProt P06276)
Sequence of Cholinesterase (P06276 whole entry): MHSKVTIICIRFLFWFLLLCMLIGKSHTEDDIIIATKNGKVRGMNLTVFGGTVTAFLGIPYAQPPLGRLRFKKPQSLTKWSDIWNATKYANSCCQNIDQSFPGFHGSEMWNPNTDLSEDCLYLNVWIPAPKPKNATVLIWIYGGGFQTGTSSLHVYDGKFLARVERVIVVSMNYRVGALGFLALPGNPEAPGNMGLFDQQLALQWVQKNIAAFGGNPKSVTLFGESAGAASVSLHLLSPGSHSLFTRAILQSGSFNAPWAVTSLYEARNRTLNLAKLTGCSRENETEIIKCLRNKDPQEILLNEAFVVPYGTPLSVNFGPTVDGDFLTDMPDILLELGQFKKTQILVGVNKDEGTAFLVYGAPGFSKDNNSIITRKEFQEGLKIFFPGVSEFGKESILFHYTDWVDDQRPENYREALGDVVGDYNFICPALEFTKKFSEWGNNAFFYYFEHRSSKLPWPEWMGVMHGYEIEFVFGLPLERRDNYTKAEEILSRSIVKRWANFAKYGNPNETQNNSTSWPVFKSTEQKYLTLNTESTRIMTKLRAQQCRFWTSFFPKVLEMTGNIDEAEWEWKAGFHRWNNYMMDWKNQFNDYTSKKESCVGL
Description: Inhibition of human serum BuChE

Sequence of Acetylcholinesterase (Homo sapiens, UniProt P22303) (P22303 whole entry): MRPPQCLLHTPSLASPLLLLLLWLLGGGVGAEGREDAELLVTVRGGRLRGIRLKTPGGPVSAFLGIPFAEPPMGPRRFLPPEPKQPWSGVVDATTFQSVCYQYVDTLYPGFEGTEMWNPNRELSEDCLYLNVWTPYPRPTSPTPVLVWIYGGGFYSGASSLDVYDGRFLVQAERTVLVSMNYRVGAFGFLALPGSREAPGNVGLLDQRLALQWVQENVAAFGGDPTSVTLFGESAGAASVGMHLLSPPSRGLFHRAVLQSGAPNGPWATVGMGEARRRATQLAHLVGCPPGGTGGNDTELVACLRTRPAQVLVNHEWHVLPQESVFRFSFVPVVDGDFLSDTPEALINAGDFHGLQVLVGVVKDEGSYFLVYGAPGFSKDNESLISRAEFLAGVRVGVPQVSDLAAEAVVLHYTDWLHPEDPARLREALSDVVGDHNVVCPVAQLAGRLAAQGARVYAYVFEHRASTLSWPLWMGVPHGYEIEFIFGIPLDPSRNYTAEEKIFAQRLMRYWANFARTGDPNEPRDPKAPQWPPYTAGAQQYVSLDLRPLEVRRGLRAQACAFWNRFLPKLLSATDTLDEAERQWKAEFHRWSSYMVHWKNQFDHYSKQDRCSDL
Sequence of Acetylcholinesterase (Electrophorus electricus, UniProt O42275) (O42275 whole entry): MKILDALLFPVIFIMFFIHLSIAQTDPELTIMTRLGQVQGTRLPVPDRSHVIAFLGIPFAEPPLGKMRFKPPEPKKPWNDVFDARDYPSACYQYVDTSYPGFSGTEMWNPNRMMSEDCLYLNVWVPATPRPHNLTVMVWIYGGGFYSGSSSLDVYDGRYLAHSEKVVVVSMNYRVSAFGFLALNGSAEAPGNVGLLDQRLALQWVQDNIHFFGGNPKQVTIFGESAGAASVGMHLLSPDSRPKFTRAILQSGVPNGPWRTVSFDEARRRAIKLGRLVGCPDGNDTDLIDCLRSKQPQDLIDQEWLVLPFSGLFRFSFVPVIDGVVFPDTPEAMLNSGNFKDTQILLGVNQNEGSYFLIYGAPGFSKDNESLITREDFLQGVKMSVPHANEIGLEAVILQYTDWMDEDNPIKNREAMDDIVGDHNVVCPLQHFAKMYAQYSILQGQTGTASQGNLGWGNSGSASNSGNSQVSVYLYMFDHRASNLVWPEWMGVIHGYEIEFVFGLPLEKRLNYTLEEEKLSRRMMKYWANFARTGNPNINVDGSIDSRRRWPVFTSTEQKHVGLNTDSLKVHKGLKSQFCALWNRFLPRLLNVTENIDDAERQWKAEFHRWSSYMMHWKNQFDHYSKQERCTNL

| SMILES | IC50 [1] | IC50 [2] | inhibition at 0.3 µM [3] | viability at 0.3 µM [4] | IC50 [5] |
| --- | --- | --- | --- | --- | --- |
| CCOC(=O)C1=C(C)Nc2nc3c(c(N)c2C1c1ccccc1)CCCC3 (stereo not drawn) | 122 nM | 80 nM | 36.6% | 30.6% | > 100000 nM |
| COCCOC(=O)C1=C(C)NC(C)=C(C(=O)OC(C)C)C1c1cccc([N+](=O)[O-])c1 (stereo not drawn) [NIMODIPINE] | – | – | 45.5% | 36% | – |
| CCOC(=O)C1=C(C)Nc2nc3c(c(N)c2C1c1ccccc1OC)CCCC3 (stereo not drawn) | – | – | 46.5% | – | – |
| CCOC(=O)C1=C(C)Nc2nc3c(c(N)c2C1c1ccc(OC)cc1)CCCC3 (stereo not drawn) | – | – | 32.8% | – | – |
| CCOC(=O)C1=C(C)Nc2nc3c(c(N)c2C1c1ccc(C)cc1)CCCC3 (stereo not drawn) | 169 nM | 91 nM | 29.8% | 53.7% | > 100000 nM |
| CCOC(=O)C1=C(C)Nc2nc3c(c(N)c2C1c1ccc([N+](=O)[O-])cc1)CCCC3 (stereo not drawn) | 309 nM | 600 nM | 66.7% | 35.5% | 34400 nM |
| CCOC(=O)C1=C(C)Nc2nc3c(c(N)c2C1c1cccc(OC)c1)CCCC3 (stereo not drawn) | – | – | 31% | – | – |
| CCOC(=O)C1=C(C)Nc2nc3c(c(N)c2C1c1ccccc1[N+](=O)[O-])CCCC3 (stereo not drawn) | – | – | 32.6% | – | – |
| CCOC(=O)C1=C(C)Nc2nc3c(c(N)c2C1c1cccc([N+](=O)[O-])c1)CCCC3 (stereo not drawn) | – | – | 33.6% | – | – |
| CCOC(=O)C1=C(C)Nc2nc3c(c(N)c2C1c1ccc(F)cc1)CCCC3 (stereo not drawn) | – | – | 22.2% | – | – |
